Measured values from patent US20250197864A1, “LNCRNA TRANSCRIPTS IN MELANOMAGENESIS” (The Regents of the University of California, priority 2021, published 2025).

System: gene expression in D04 melanoma cells
Assay: RNA-Seq differential expression analysis (DESeq2)
Assay type: cell-based, human
Description: Total RNA was isolated using the RNeasy mini Kit (QIAGEN) following the manufacturer's protocol. Quality check for extracted RNA was done using 2100 Bioanalyzer (Agilent Technologies, USA) or Tapestation System (Agilent Technologies, USA). […] For samples used for identification of MAPK-responsive lncRNAs, paired-end, 101-bp sequencing was performed by Centrillion Genomic Services (Centrillion Biosciences, USA) on an Illumina HiSeq 2000. For DE gene analysis of ASO-transfected D04 samples, paired-end, 2×150-bp sequencing was performed by Genewiz (USA) on a Illumina HiSeq.
Sequence reads were aligned to the human genome (hg19) using TopHat (Version 2.0.11).
Differential expression (DE) analysis was done using DESeq2. Differentially expressed genes were defined by more than 1.5-fold changes (log 2 >0.58 or <−0.58) in expression with FDR<0.05. GO term analysis was done using DAVID Functional Annotation Clustering analysis.
To examine the biomolecular changes upon TRASH-inhibition in melanoma, D04 cells were treated with TRASH-ASOs (SEQ ID NO:15) and Control-ASOs and RNA was extracted and used for RNA-Seq. […] These GO terms consisted of genes encoding growth factors, tyrosine kinases, G protein coupled receptor subunits, and collagen subunits. Scatter plot diagram showing differential gene expression after TRASH-ASO treatment compared to Control-ASO treatment. (cut-off for significance was adjusted p-value <0.05). Data was obtained from RNA-Seq of D04 melanoma cells, treatment period was three days. (FIG. 5c)

GACTGGAGATAATTAA (gapmer, pattern not given here) [SEQ ID NO: 15, GapmeR ASO targeting AC004540.4 (TRASH), exon region of both isoforms; used for in vitro experiments]
log2FoldChange (44256 (ENSG00000186205)): 1.274
log2FoldChange (44259 (ENSG00000144583)): 2.095
log2FoldChange (A2M (ENSG00000175899)): −0.6461
log2FoldChange (AADACP1 (ENSG00000240602)): 1.744
log2FoldChange (AAGAB (ENSG00000103591)): −0.6248
log2FoldChange (AAMDC (ENSG00000087884)): −0.6077
log2FoldChange (ABCA7 (ENSG00000064687)): −0.6185
log2FoldChange (AC004817.3 (ENSG00000269927)): 1.303
log2FoldChange (AC004949.1 (ENSG00000283117)): −0.6056
log2FoldChange (AC005144.1 (ENSG00000283517)): 1.578
log2FoldChange (AC006058.1 (ENSG00000261786)): −0.7044
log2FoldChange (AC009502.2 (ENSG00000231802)): 1.847
log2FoldChange (AC010735.1 (ENSG00000261379)): −0.6617
log2FoldChange (AC010735.2 (ENSG00000272622)): −0.6927
log2FoldChange (AC011944.1 (ENSG00000177699)): 1.481
log2FoldChange (AC022007.1 (ENSG00000206567)): −0.6327
log2FoldChange (AC022031.2 (ENSG00000267284)): −0.6353
log2FoldChange (AC048341.1 (ENSG00000257354)): −0.6321
log2FoldChange (AC073130.1 (ENSG00000237870)): 1.474
log2FoldChange (AC090192.2 (ENSG00000253227)): 1.561
log2FoldChange (AC090204.1 (ENSG00000247134)): −0.6895
log2FoldChange (AC090505.1 (ENSG00000234805)): 1.656
log2FoldChange (AC099552.1 (ENSG00000217825)): 2.619
log2FoldChange (AC105942.1 (ENSG00000235501)): −0.6072
log2FoldChange (AC117386.2 (ENSG00000243944)): −0.661
log2FoldChange (AC131254.1 (ENSG00000248964)): 2
log2FoldChange (AC133785.1 (ENSG00000233221)): 1.627
log2FoldChange (AC135782.1 (ENSG00000256982)): 1.563
log2FoldChange (AC139491.2 (ENSG00000248596)): 1.322
log2FoldChange (AC237221.1 (ENSG00000260653)): 1.665
log2FoldChange (AC245041.1 (ENSG00000273760)): 1.261
log2FoldChange (ACTBL2 (ENSG00000169067)): −0.6731
log2FoldChange (ACTR3C (ENSG00000106526)): −0.7012
log2FoldChange (ADCYAP1R1 (ENSG00000078549)): 2.87
log2FoldChange (ADGRA2 (ENSG00000020181)): −0.7029
log2FoldChange (ADGRB1 (ENSG00000181790)): 1.472
log2FoldChange (ADGRE4P (ENSG00000268758)): 1.451
log2FoldChange (ADPRHL1 (ENSG00000153531)): 3.706
log2FoldChange (ADRB2 (ENSG00000169252)): 1.354
log2FoldChange (AHNAK2 (ENSG00000185567)): 1.379
log2FoldChange (AHR (ENSG00000106546)): −0.6391
log2FoldChange (AKNAD1 (ENSG00000162641)): 1.238
log2FoldChange (AL161431.1 (ENSG00000275216)): 1.631
log2FoldChange (AL356234.3 (ENSG00000283265)): 2.668
log2FoldChange (AL365181.2 (ENSG00000272068)): 1.422
log2FoldChange (AL390334.1 (ENSG00000258932)): −0.6259
log2FoldChange (AL512488.1 (ENSG00000230439)): 1.824
log2FoldChange (AL590004.4 (ENSG00000260604)): 1.853
log2FoldChange (ALMS1-IT1 (ENSG00000230002)): 1.247
log2FoldChange (ALOXE3 (ENSG00000179148)): 4.94
log2FoldChange (ALPI (ENSG00000163295)): 7.153
log2FoldChange (ANKH (ENSG00000154122)): −0.6414
log2FoldChange (ANO2 (ENSG00000047617)): 2.643
log2FoldChange (ANXA8 (ENSG00000265190)): 1.513
log2FoldChange (ANXA8L1 (ENSG00000264230)): 1.299
log2FoldChange (APOA4 (ENSG00000110244)): 7.547
log2FoldChange (APOE (ENSG00000130203)): −0.6001
log2FoldChange (AQP1 (ENSG00000240583)): −0.6784
log2FoldChange (ARC (ENSG00000198576)): 1.257
log2FoldChange (ARHGDIB (ENSG00000111348)): 1.501
log2FoldChange (ARSA (ENSG00000100299)): −0.6363
log2FoldChange (ATG9B (ENSG00000181652)): 1.674
log2FoldChange (ATP2B2 (ENSG00000157087)): 2.6809
log2FoldChange (B3GALT5 (ENSG00000183778)): 3.38
log2FoldChange (B4GALNT3 (ENSG00000139044)): −0.6558
log2FoldChange (BAALC-AS1 (ENSG00000247081)): −0.5946
log2FoldChange (BEX5 (ENSG00000184515)): 1.778
log2FoldChange (BHLHB9 (ENSG00000198908)): −0.6347
log2FoldChange (BIRC7 (ENSG00000101197)): 1.54
log2FoldChange (BVES (ENSG00000112276)): −0.7008
log2FoldChange (C1orf21 (ENSG00000116667)): −0.5945
log2FoldChange (C1orf116 (ENSG00000182795)): 1.382
log2FoldChange (C3 (ENSG00000125730)): −0.6635
log2FoldChange (C5 (ENSG00000106804)): −0.69
log2FoldChange (C7orf57 (ENSG00000164746)): 1.917
log2FoldChange (C7orf69 (ENSG00000136275)): −0.6813
log2FoldChange (C10orf55 (ENSG00000222047)): 2.331
log2FoldChange (C10orf90 (ENSG00000154493)): −0.626
log2FoldChange (C11orf86 (ENSG00000173237)): 1.233
log2FoldChange (C15orf54 (ENSG00000175746)): 1.489
log2FoldChange (C16orf45 (ENSG00000166780)): −0.6742
log2FoldChange (CACNA1D (ENSG00000157388)): −0.6311
log2FoldChange (CACNA1H (ENSG00000196557)): 1.733
log2FoldChange (CALB2 (ENSG00000172137)): 1.839
log2FoldChange (CARMIL1 (ENSG00000079691)): −0.6828
log2FoldChange (CASC9 (ENSG00000249395)): −0.6279
log2FoldChange (CASTOR3 (ENSG00000239521)): −0.6683
